In ChEMBL document CHEMBL5046264, “Cyclotides Chemosensitize Glioblastoma Cells to Temozolomide” (J Nat Prod, 2022) one finds viability, IC50 and Activity data, which are given here for 2 molecules.

As a reminder, the IC50 is the concentration at which inhibition is half-maximal.

The subject of assay [1] is U-87 MG. Description: Cytotoxicity against human U-87 MG cells assessed as cell viability at 10 uM upto 72 hrs by MTT assay. In kind it is functional, U-87MG ATCC. Conditions: time hrs <=72, read-out: Activity. (In general: Tetrazolium assays rely on reduction of a dye to a coloured formazan, in cell work by metabolically active cells.)
Assay [2] relates to U-87 MG. Description: Cytotoxicity against human U-87 MG cells assessed as cell viability at 5 uM upto 72 hrs by MTT assay. In kind it is functional, U-87MG ATCC. Particulars: time hrs <=72, read-out: Activity.
The subject of assay [3] is U-87 MG. Description: Cytotoxicity against human U-87 MG cells by sulforhodamine B assay. Type of assay: functional, cell-based, U-87MG ATCC. A general note: The SRB assay estimates cell density from bound dye.
The subject of assay [4] is U-87 MG. Description: Cytotoxicity against human U-87 MG cells using best fit nonlinear regression analysis. In kind it is functional, cell-based, U-87MG ATCC.
A further assay relates to U-251. Description: Cytotoxicity against human U-251 cells by sulforhodamine B assay. Type of assay: functional, cell-based.
For assay [5], the system named is SH-SY5Y. As to the kind of experiment: Cytotoxicity against human SH-SY5Y cells assessed as cell viability at 10 uM upto 72 hrs by MTT assay. Type of assay: functional. Conditions: time hrs <=72, read-out: Activity.
The subject of assay [6] is SH-SY5Y. As to the kind of experiment: Cytotoxicity against human SH-SY5Y cells assessed as cell viability using raw interpretation method. Type of assay: functional, cell-based.
Assay [7] concerns SH-SY5Y. Description: Cytotoxicity against human SH-SY5Y cells assessed as cell viability at 5 uM upto 72 hrs by MTT assay. Type of assay: functional. Conditions: time hrs <=72, read-out: Activity.
For assay [8], the system named is SH-SY5Y. As to the kind of experiment: Cytotoxicity against human SH-SY5Y cells using best fit nonlinear regression analysis. In kind it is functional, cell-based.
Assay [9] relates to U-87 MG. Description: Cytotoxicity against human U-87 MG cells assessed as cell viability using raw interpretation method. In kind it is functional, cell-based, U-87MG ATCC.
The subject of assay [10] is U-87 MG. As to the kind of experiment: Effect on cell morphology in human U-87 MG cells at 4.2 uM cotreated with 1408 uM of TMZ measured after 72 hrs by phase contrast microscopy. In kind it is functional, cell-based. Conditions: U-87MG ATCC.
Assay [11] relates to U-87 MG. As to the kind of experiment: Induction of morphological changes in human U-87 MG cells assessed as appearance of shrunken cell bodies at 1408 uM measured after 72 hrs by phase contrast microscopy. In kind it is functional, U-87MG ATCC.
Assay [12] relates to U-87 MG. As to the kind of experiment: Cytotoxicity against human U-87 MG cells assessed as TMZ-induced cell death at 0.35 to 2.8 uM cotreated with 176 to 704 uM of TMZ incubated upto 72 hrs by MTT assay. Type of assay: functional, cell-based. Particulars: U-87MG ATCC, dose 0.35-2.8 µM, time hrs <=72.
Assay [13] concerns U-87 MG. Description: Cytotoxicity against human U-87 MG cells assessed as TMZ-induced cell death at 4.2 uM cotreated with 1408 uM of TMZ incubated upto 72 hrs by MTT assay. In kind it is functional, cell-based. Particulars: U-87MG ATCC, time hrs <=72.
Assay [14] concerns U-87 MG. Description: Induction of morphological changes in human U-87 MG cells assessed as membrane blebbing at 1408 uM measured after 72 hrs by phase contrast microscopy. In kind it is functional, U-87MG ATCC.
The subject of assay [15] is U-87 MG. Description: Induction of morphological changes in human U-87 MG cells assessed as cell death at 4.2 uM cotreated with 1408 uM of TMZ measured after 72 hrs by phase contrast microscopy. In kind it is functional, U-87MG ATCC.
In assay [16] the test system is U-87 MG. Description: Induction of morphological changes in human U-87 MG cells assessed as appearance of undergoing apoptosis at 1408 uM measured after 72 hrs by phase contrast microscopy. Type of assay: functional, U-87MG ATCC.
Assay [17] has as its system SH-SY5Y. As to the kind of experiment: Cytotoxicity against human SH-SY5Y cells assessed as TMZ-induced cell death at 1.4 uM cotreated with 176 uM of TMZ incubated upto 72 hrs by MTT assay. In kind it is functional, cell-based. Conditions: time hrs <=72.

Calls of active or inactive are those of the source. The rule behind the calls is not given here.

Regarding `CC(C)C[C@@H]1NC(=O)CNC(=O)[C@H](CC(N)=O)NC(=O)[C@H](CCCNC(=N)N)NC(=O)[C@H]([C@@H](C)O)NC(=O)[C@@H]2CSSC[C@@H]3NC(=O)[C@H]([C@@H](C)O)NC(=O)CNC(=O)CNC(=O)[C@H](C(C)C)NC(=O)[C@@H]4CSSC[C@H](NC(=O)[C@H]([C@@H](C)O)NC(=O)[C@H](CSSC[C@H](NC(=O)[C@H](C(C)C)NC(=O)[C@@H]5CCCN5C1=O)C(=O)NCC(=O)N[C@@H](CCC(=O)O)C(=O)N[C@@H]([C@@H](C)O)C(=O)N4)NC(=O)CNC(=O)[C@@H]1CCCN1C(=O)[C@H]([C@@H](C)O)NC(=O)[C@H](CC(N)=O)NC3=O)C(=O)N[C@@H](CO)C(=O)N[C@@H](Cc1c[nH]c3ccccc13)C(=O)N1CCC[C@H]1C(=O)N[C@@H](C(C)C)C(=O)N2`, the viability at 10 µM worked out at 40% in the assay with U-87 MG [1] and 20% in the assay on SH-SY5Y [5]. For the same molecule, the viability at 5 µM in the assay with U-87 MG [2] and in the assay with SH-SY5Y [7] was 60% throughout. Moreover, the IC50 was 3.21 µM with U-87 MG [3]; 7.93 µM in the assay with U-87 MG [4]; 10.9 µM in the assay with U-251; 6.05 µM in the assay on SH-SY5Y [6]; 5.56 µM in the assay on SH-SY5Y [8]; 7.97 µM in the assay on U-87 MG [9].

On to `CC(C)C[C@@H]1NC(=O)CNC(=O)[C@H](CC(N)=O)NC(=O)[C@H](CCCNC(=N)N)NC(=O)[C@H](CO)NC(=O)[C@@H]2CSSC[C@@H]3NC(=O)[C@H]([C@@H](C)O)NC(=O)CNC(=O)CNC(=O)[C@H](C(C)C)NC(=O)[C@@H]4CSSC[C@H](NC(=O)[C@H]([C@@H](C)O)NC(=O)[C@H](CSSC[C@H](NC(=O)[C@H](C(C)C)NC(=O)[C@@H]5CCCN5C1=O)C(=O)NCC(=O)N[C@@H](CCC(=O)O)C(=O)N[C@@H]([C@@H](C)O)C(=O)N4)NC(=O)CNC(=O)[C@@H]1CCCN1C(=O)[C@H]([C@@H](C)O)NC(=O)[C@H](CC(N)=O)NC3=O)C(=O)N[C@@H](CO)C(=O)N[C@@H](Cc1c[nH]c3ccccc13)C(=O)N1CCC[C@H]1C(=O)N[C@@H](C(C)C)C(=O)N2`, for which the result with U-87 MG [10], in the assay with U-87 MG [12], in the assay with U-87 MG [13] and with SH-SY5Y [17] was Active. In addition, the viability at 5 µM was found to be 29.6% with U-87 MG [2] and 13.2% in the assay with SH-SY5Y [7]. Moreover, the Activity came to 40% in the assay with U-87 MG [11], 40% with U-87 MG [14], 50% in the assay with U-87 MG [15] and 40% with U-87 MG [16]. In addition, the IC50 was found to be 2.91 µM in the assay on U-87 MG [4]; 37.2 µg/mL with U-251; 3.53 µM in the assay with SH-SY5Y [6]; 2.88 µM in the assay on SH-SY5Y [8]; 3.76 µM in the assay on U-87 MG [9].
